Test results: patent US20240384350A1, “METHODS OF TREATING CANCER WITH KINASE INHIBITORS” (BOARD OF REGENTS, THE UNIVERSITY OF TEXAS SYSTEM, priority 2021, published 2024)
One block for each compound: values may come before it.

Key:
Assay in all cases: Ba/F3 drug screening, Cell Titer Glo, IC50 Mut/WT
Type in all cases: cell-based
[1] = target: T1, EGFR L747P (Homo sapiens, UniProt P00533, L747P)
T1 construct: expressed in transfected cells; host or cells: Ba/F3

[2] = target: T2, EGFR R776C (Homo sapiens, UniProt P00533, R776C)
T2 construct: host or cells: Ba/F3
Procedure: (§1) Data represent the ratio of the IC50 value for a given TKI for cells with a PACC EGFR mutation to the IC50 value for cells with wildtype EGFR.
(§2) Ba/F3 cell generation, drug screening, and IC50 approximations. Ba/F3 cells were obtained as a gift from Dr. Gordon Mills (MD Anderson Cancer Center), and maintained in RPMI (Sigma) containing 10% FBS, 1% penicillin/streptomycin, and 10 ng/ml recombinant mIL-3 (R&D Biosystems). To establish stable Ba/F3 cell lines, Ba/F3 cells were transduced with retroviruses containing mutant EGFR plasmids for 12-24 hours.
(§3) After 48-72 hours of transduction, 2 μg/ml puromycin (Invitrogen) was added to Ba/F3 cell lines in complete RPMI. To select for EGFR positive cell lines, cells were stained with PE-EGFR (Biolegend) and sorted by FACS. After sorting, EGFR positive cells were maintained in RPMI containing 10% FBS, 1% penicillin/streptomycin, and 1 ng/ml EGF to support cell viability. Drug screening was performed as previously described^41,42. Shortly, cells were plated in 384-well plates (Greiner Bio-One) at 2000-3000 cells per well in technical triplicate. Seven different concentrations of TKIs or DMSO vehicle were added to reach a final volume of 40 μL per well. After 72 hours, 11 μL of Cell Titer Glo (Promega) was added to each well. Plates were incubated for a minimum of 10 minutes, and bioluminescence was determined using a FLUOstar OPTIMA plate reader (BMG LABTECH). Raw bioluminescence values were normalized to DMSO control treated cells, and values were plotted in GraphPad Prism. […] Drug screens were performed in technical triplicate on each plate and either duplicate or triplicate biological replicates.

[3] = target: T3, EGFR S768I/V769L (Homo sapiens, UniProt P00533, S768I/V769L)
T3 construct: host or cells: Ba/F3

[4] = target: T4, EGFR S768dupSVD V769M (Homo sapiens, UniProt P00533, INS768MDS/V769M); conditions: Ex20, 72 hours
T4 construct: expressed in transfected cells; host or cells: Ba/F3 cells, retroviral pBabe-Puro vector (vector made by GeneScript from EGFR S768dupSVD, c.2305G > A)
Procedure: Data represent the ratio of the IC50 value for a given TKI for cells with an ex20ins EGFR mutation to the IC50 value for cells with wildtype EGFR.
as §2
(§4) After 48-72 hours of transduction, 2 μg/ml puromycin (Invitrogen) was added to Ba/F3 cell lines in complete RPMI. To select for EGFR positive cell lines, cells were stained with PE-EGFR (Biolegend) and sorted by FACS. After sorting, EGFR positive cells were maintained in RPMI containing 10% FBS, 1% penicillin/streptomycin, and 1 ng/ml EGF to support cell viability. Drug screening was performed as previously described^41,42. Shortly, cells were plated in 384-well plates (Greiner Bio-One) at 2000-3000 cells per well in technical triplicate. Seven different concentrations of TKIs or DMSO vehicle were added to reach a final volume of 40 μL per well. After 72 hours, 11 μL of Cell Titer Glo (Promega) was added to each well. Plates were incubated for a minimum of 10 minutes, and bioluminescence was determined using a FLUOstar OPTIMA plate reader (BMG LABTECH). Raw bioluminescence values were normalized to DMSO control treated cells, and values were plotted in GraphPad Prism. […] Drug screens were performed in technical triplicate on each plate and either duplicate or triplicate biological replicates. […] Statistical differences between groups were determined by ANOVA as described in the figure legends.

[5] = target: T5, EGFR S768I (Homo sapiens, UniProt P00533, S768I)
T5 construct: expressed in transfected cells; host or cells: Ba/F3
Procedure: as §1, §2, §4

[6] = target: T6, EGFR G724S T790M (Homo sapiens, UniProt P00533, G724S/T790M); conditions: T790M-like-3R, 72 hours
T6 construct: expressed in transfected cells; host or cells: Ba/F3

[7] = target: T7, EGFR Ex19del L718V (Homo sapiens, UniProt P00533, DEL746-750/L718V)
T7 construct: expressed in transfected cells; host or cells: Ba/F3

[8] = target: T8, EGFR L833V (Homo sapiens, UniProt P00533, L833V); conditions: Classical-Like, 72 hours
T8 construct: expressed in transfected cells; host or cells: Ba/F3 cells, retroviral pBabe-Puro vector
Procedure: (§5) Data represent the ratio of the IC50 value for a given TKI for cells with a classical-like EGFR mutation to the IC50 value for cells with wildtype EGFR.
as §2
(§6) After 48-72 hours of transduction, 2 μg/ml puromycin (Invitrogen) was added to Ba/F3 cell lines in complete RPMI. To select for EGFR positive cell lines, cells were stained with PE-EGFR (Biolegend) and sorted by FACS. After sorting, EGFR positive cells were maintained in RPMI containing 10% FBS, 1% penicillin/streptomycin, and 1 ng/ml EGF to support cell viability. […] Shortly, cells were plated in 384-well plates (Greiner Bio-One) at 2000-3000 cells per well in technical triplicate. Seven different concentrations of TKIs or DMSO vehicle were added to reach a final volume of 40 μL per well. After 72 hours, 11 μL of Cell Titer Glo (Promega) was added to each well. Plates were incubated for a minimum of 10 minutes, and bioluminescence was determined using a FLUOstar OPTIMA plate reader (BMG LABTECH). Raw bioluminescence values were normalized to DMSO control treated cells, and values were plotted in GraphPad Prism. […] Drug screens were performed in technical triplicate on each plate and either duplicate or triplicate biological replicates.

[9] = target: T9, EGFR Ex19del/L792H (Homo sapiens, UniProt P00533, DEL746-750/L792H)
T9 construct: expressed in transfected cells; host or cells: Ba/F3

[10] = target: T10, EGFR V769L (Homo sapiens, UniProt P00533, V769L)
T10 construct: expressed in transfected cells; host or cells: Ba/F3

[11] = target: T11, EGFR R776H (Homo sapiens, UniProt P00533, R776H)
T11 construct: host or cells: Ba/F3
Procedure: as §1, §2, §3

[12] = target: T12, EGFR L718Q (Homo sapiens, UniProt P00533, L718Q)
T12 construct: expressed in transfected cells; host or cells: Ba/F3
Procedure: as §1, §2, §3

[13] = target: T13, EGFR Ex19del/C797S (Homo sapiens, UniProt P00533, C797S/DEL746-750)
T13 construct: expressed in transfected cells; host or cells: Ba/F3
Procedure: as §1, §2, §3

[14] = target: T14, EGFR K754E (Homo sapiens, UniProt P00533, K754E); conditions: Classical-Like, 72 hours
T14 construct: expressed in transfected cells; host or cells: Ba/F3 cells, retroviral pBabe-Puro vector
Procedure: as §5, §2, §6

[15] = target: T15, EGFR L861Q (Homo sapiens, UniProt P00533, L861Q); conditions: Classical-Like, 72 hours
T15 construct: expressed in transfected cells; host or cells: Ba/F3 cells, retroviral pBabe-Puro vector
Procedure: as §5, §2, §6

[16] = target: T16, EGFR L858R T790M V843I (Homo sapiens, UniProt P00533, L858R/T790M/V843I); conditions: T790M-like-3S, 72 hours
T16 construct: expressed in transfected cells; host or cells: Ba/F3
Procedure: (§7) Data represent the ratio of the IC50 value for a given TKI for cells with a T790M-like-3S EGFR mutation to the IC50 value for cells with wildtype EGFR.
as §2, §3

[17] = target: T17, EGFR G724S (Homo sapiens, UniProt P00533, G724S)
T17 construct: expressed in transfected cells; host or cells: Ba/F3
Procedure: as §1, §2, §3

[18] = target: T18, EGFR G719A/R776C (Homo sapiens, UniProt P00533, G719A/R776C)
T18 construct: expressed in transfected cells; host or cells: Ba/F3
Procedure: as §1, §2, §3

[19] = tested on: EGFR I740dupIPVAK
Procedure: as §1, §2, §3

[20] = target: T19, EGFR L861R (Homo sapiens, UniProt P00533, L861R); conditions: Classical-Like, 72 hours
T19 construct: expressed in transfected cells; host or cells: Ba/F3 cells, retroviral pBabe-Puro vector (vector made by GeneScript from EGFR WT)
Procedure: as §5, §2, §6

[21] = target: T20, EGFR L718Q T790M (Homo sapiens, UniProt P00533, L718Q/T790M); conditions: T790M-like-3R, 72 hours
T20 construct: expressed in transfected cells; host or cells: Ba/F3
Procedure: (§8) Data represent the ratio of the IC50 value for a given TKI for cells with a T790M-like-3R EGFR mutation to the IC50 value for cells with wildtype EGFR.
as §2
(§9) After 48-72 hours of transduction, 2 μg/ml puromycin (Invitrogen) was added to Ba/F3 cell lines in complete RPMI. To select for EGFR positive cell lines, cells were stained with PE-EGFR (Biolegend) and sorted by FACS. After sorting, EGFR positive cells were maintained in RPMI containing 10% FBS, 1% penicillin/streptomycin, and 1 ng/ml EGF to support cell viability. […] Shortly, cells were plated in 384-well plates (Greiner Bio-One) at 2000-3000 cells per well in technical triplicate. Seven different concentrations of TKIs or DMSO vehicle were added to reach a final volume of 40 μL per well. After 72 hours, 11 μL of Cell Titer Glo (Promega) was added to each well. Plates were incubated for a minimum of 10 minutes, and bioluminescence was determined using a FLUOstar OPTIMA plate reader (BMG LABTECH). Raw bioluminescence values were normalized to DMSO control treated cells, and values were plotted in GraphPad Prism. […] Drug screens were performed in technical triplicate on each plate and either duplicate or triplicate biological replicates. […] Statistical differences between groups were determined by ANOVA as described in the figure legends.

[22] = target: T21, EGFR S768I/T790M (Homo sapiens, UniProt P00533, S768I/T790M); conditions: T790M-like-3S, 72 hours
T21 construct: expressed in transfected cells; host or cells: Ba/F3
Procedure: as §7, §2, §3

[23] = target: T22, EGFR L858R/T790M/C797S (Homo sapiens, UniProt P00533, C797S/L858R/T790M); conditions: T790M-like-3R, 72 hours
T22 construct: expressed in transfected cells; host or cells: Ba/F3
Procedure: as §8, §2, §9

[24] = target: T23, EGFR E709K L858R (Homo sapiens, UniProt P00533, E709K/L858R); conditions: Classical-Like, 72 hours
T23 construct: expressed in transfected cells; host or cells: Ba/F3 cells, retroviral pBabe-Puro vector

[25] = target: T24, EGFR L858R T790M L718V (Homo sapiens, UniProt P00533, L718V/L858R/T790M); conditions: T790M-like-3R, 72 hours
T24 construct: expressed in transfected cells; host or cells: Ba/F3

[26] = target: T25, EGFR L858R G724S (Homo sapiens, UniProt P00533, G724S/L858R)
T25 construct: expressed in transfected cells; host or cells: Ba/F3 (retroviral transduction, pBabe-Puro based vectors)

ratio of the IC50 value for cells with a PACC EGFR mutation to the IC50 value for cells with wildtype EGFR ([1]; Ba/F3 cells, EGFR L747P (PACC), Mut/WT): 3.59 | ratio of the IC50 value for cells with a PACC EGFR mutation to the IC50 value for cells with wildtype EGFR ([2]; Ba/F3 cells, EGFR R776C (PACC), Mut/WT): 0.1019 | ratio of the IC50 value for cells with a PACC EGFR mutation to the IC50 value for cells with wildtype EGFR ([3]; Ba/F3 cells, EGFR S768I/V769L (PACC), Mut/WT): 0.599 | ratio of IC50 for cells with mutant EGFR to IC50 for cells with wildtype EGFR (Mut/WT) [4]: 0.3864 | ratio of the IC50 value for cells with a PACC EGFR mutation to the IC50 value for cells with wildtype EGFR ([5]; Ba/F3 cells, EGFR S768I (PACC), Mut/WT): 1.361 | ratio of IC50 for cells with mutant EGFR to IC50 for cells with wildtype EGFR (Mut/WT) [6]: 0.428 | ratio of the IC50 value for cells with a PACC EGFR mutation to the IC50 value for cells with wildtype EGFR ([7]; Ba/F3 cells, EGFR Ex19del L718V (PACC), Mut/WT): 1.339 | ratio of IC50 for cells with mutant EGFR to IC50 for cells with wildtype EGFR (Mut/WT) [8]: 0.4446 | ratio of the IC50 value for cells with a PACC EGFR mutation to the IC50 value for cells with wildtype EGFR ([9]; Ba/F3 cells, EGFR Ex19del/L792H (PACC), Mut/WT): 1.778 | ratio of the IC50 value for cells with a PACC EGFR mutation to the IC50 value for cells with wildtype EGFR ([10]; Ba/F3 cells, EGFR V769L (PACC), Mut/WT): 1.367 | ratio of the IC50 value for cells with a PACC EGFR mutation to the IC50 value for cells with wildtype EGFR ([11]; Ba/F3 cells, EGFR R776H (PACC), Mut/WT): 3.409 | ratio of the IC50 value for cells with a PACC EGFR mutation to the IC50 value for cells with wildtype EGFR ([12]; Ba/F3 cells, EGFR L718Q (PACC), Mut/WT): 11.32 | ratio of the IC50 value for cells with a PACC EGFR mutation to the IC50 value for cells with wildtype EGFR ([13]; Ba/F3 cells, EGFR Ex19del/C797S (PACC), Mut/WT): 49.96 | ratio of IC50 for cells with mutant EGFR to IC50 for cells with wildtype EGFR (Mut/WT) [14]: 0.01871 | ratio of IC50 for cells with mutant EGFR to IC50 for cells with wildtype EGFR (Mut/WT) [15]: 0.5871 | ratio of IC50 for cells with mutant EGFR to IC50 for cells with wildtype EGFR (Mut/WT) [16]: 0.6934 | ratio of the IC50 value for cells with a PACC EGFR mutation to the IC50 value for cells with wildtype EGFR ([17]; Ba/F3 cells, EGFR G724S (PACC), Mut/WT): 36.15 | ratio of the IC50 value for cells with a PACC EGFR mutation to the IC50 value for cells with wildtype EGFR ([18]; Ba/F3 cells, EGFR G719A/R776C (PACC), Mut/WT): 0.2136 | ratio of the IC50 value for cells with a PACC EGFR mutation to the IC50 value for cells with wildtype EGFR ([19]; Ba/F3 cells, EGFR I740dupIPVAK (PACC), Mut/WT): 2.234 | ratio of IC50 for cells with mutant EGFR to IC50 for cells with wildtype EGFR (Mut/WT) [20]: 0.2335 | ratio of IC50 for cells with mutant EGFR to IC50 for cells with wildtype EGFR (Mut/WT) [21]: 26.6 | ratio of IC50 for cells with mutant EGFR to IC50 for cells with wildtype EGFR (Mut/WT) [22]: 1.619 | ratio of IC50 for cells with mutant EGFR to IC50 for cells with wildtype EGFR (Mut/WT) [23]: 78.11 | ratio of IC50 for cells with mutant EGFR to IC50 for cells with wildtype EGFR (Mut/WT) [24]: 0.1151 | ratio of IC50 for cells with mutant EGFR to IC50 for cells with wildtype EGFR (Mut/WT) [25]: 19.66 | ratio of the IC50 value for cells with a PACC EGFR mutation to the IC50 value for cells with wildtype EGFR ([26]; Ba/F3 cells, EGFR L858R G724S (PACC), Mut/WT): 0.001759
Structure (SMILES): C=CC(=O)Nc1cc(Nc2nccc(-c3c[nH]c4ccccc34)n2)c(OC)cc1N(C)CCN(C)C [AZ5104]

ratio of IC50 for cells with mutant EGFR to IC50 for cells with wildtype EGFR (Mut/WT) ([1]; PACC, L747P, Ba/F3, 72 hours): 0.2937 | ratio of IC50 for cells with mutant EGFR to IC50 for cells with wildtype EGFR (Mut/WT) ([2]; PACC, R776C, Ba/F3, 72 hours): 0.1522 | ratio of IC50 for cells with mutant EGFR to IC50 for cells with wildtype EGFR (Mut/WT) ([3]; PACC, S768I/V769L, Ba/F3, 72 hours): 0.7072 | ratio of IC50 for cells with mutant EGFR to IC50 for cells with wildtype EGFR (Mut/WT) [4]: 1.659 | ratio of IC50 for cells with mutant EGFR to IC50 for cells with wildtype EGFR (Mut/WT) ([5]; PACC, S768I, Ba/F3, 72 hours): 0.145 | ratio of IC50 for cells with mutant EGFR to IC50 for cells with wildtype EGFR (Mut/WT) [6]: 7.7 | ratio of IC50 for cells with mutant EGFR to IC50 for cells with wildtype EGFR (Mut/WT) ([7]; PACC, Ex19del L718V, Ba/F3, 72 hours): 0.04127 | ratio of IC50 for cells with mutant EGFR to IC50 for cells with wildtype EGFR (Mut/WT) [8]: 0.1488 | ratio of IC50 for cells with mutant EGFR to IC50 for cells with wildtype EGFR (Mut/WT) ([9]; PACC, Ex19del/L792H, Ba/F3, 72 hours): 9.625 | ratio of IC50 for cells with mutant EGFR to IC50 for cells with wildtype EGFR (Mut/WT) ([10]; PACC, V769L, Ba/F3, 72 hours): 0.9765 | ratio of IC50 for cells with mutant EGFR to IC50 for cells with wildtype EGFR (Mut/WT) ([11]; PACC, R776H, Ba/F3, 72 hours): 0.02185 | ratio of IC50 for cells with mutant EGFR to IC50 for cells with wildtype EGFR (Mut/WT) ([12]; PACC, L718Q, Ba/F3, 72 hours): 1.696 | ratio of IC50 for cells with mutant EGFR to IC50 for cells with wildtype EGFR (Mut/WT) ([13]; PACC, Ex19del/C797S, Ba/F3, 72 hours): 0.0001375 | ratio of IC50 for cells with mutant EGFR to IC50 for cells with wildtype EGFR (Mut/WT) [14]: 0.04651 | ratio of IC50 for cells with mutant EGFR to IC50 for cells with wildtype EGFR (Mut/WT) [15]: 0.08924 | ratio of IC50 for cells with mutant EGFR to IC50 for cells with wildtype EGFR (Mut/WT) [16]: 9.625 | ratio of IC50 for cells with mutant EGFR to IC50 for cells with wildtype EGFR (Mut/WT) ([17]; PACC, G724S, Ba/F3, 72 hours): 0.01105 | ratio of IC50 for cells with mutant EGFR to IC50 for cells with wildtype EGFR (Mut/WT) ([18]; PACC, G719A/R776C, Ba/F3, 72 hours): 0.2006 | ratio of IC50 for cells with mutant EGFR to IC50 for cells with wildtype EGFR (Mut/WT) ([19]; PACC, I740dupIPVAK, Ba/F3, 72 hours): 0.08984 | ratio of IC50 for cells with mutant EGFR to IC50 for cells with wildtype EGFR (Mut/WT) [20]: 0.03704 | ratio of IC50 for cells with mutant EGFR to IC50 for cells with wildtype EGFR (Mut/WT) [21]: 9.625 | ratio of IC50 for cells with mutant EGFR to IC50 for cells with wildtype EGFR (Mut/WT) [22]: 7.218 | ratio of IC50 for cells with mutant EGFR to IC50 for cells with wildtype EGFR (Mut/WT) [23]: 9.625 | ratio of IC50 for cells with mutant EGFR to IC50 for cells with wildtype EGFR (Mut/WT) [24]: 0.02202 | ratio of IC50 for cells with mutant EGFR to IC50 for cells with wildtype EGFR (Mut/WT) [25]: 4.812 | ratio of IC50 for cells with mutant EGFR to IC50 for cells with wildtype EGFR (Mut/WT) ([26]; PACC, L858R G724S, Ba/F3, 72 hours): 0.0005419
Structure (SMILES): COc1cc2ncnc(Nc3cccc(Cl)c3F)c2cc1OC(=O)N1CCN(C)C[C@H]1C [AZD3759]
